Source: US11155523B2, “Biphenyl compound as CCR2/CCR5 receptor antagonist” (Medshine Discovery Inc., priority 2016, dated 2021)

Key:
CCR2 = target: T1, CCR2 (Homo sapiens, UniProt P41597); assay: CCR2 in vitro test: intracellular calcium signal detected by FLIPR; assay type: cell-based; conditions: HEK293 cells expressing CCR2, agonist MCP-1 at EC80, calcium signal
T1 construct: expressed in transfected cells; host or cells: HEK293, clone C7, passage P6
Procedure: (§1) Experimental Example 1: CCR2/CCR5 In Vitro Test
(§2) The intracellular calcium signal was detected by FLIPR, and the IC50 value of the compound was used as an index to evaluate the inhibitory effect of the compound on CCR2 and CCR5 receptors.
(§3) 1. Cell line: The cells were inoculated and incubated in a 5% CO2 incubator at 37° C. overnight.
(§4) CCR2/CCR5 density: 1 M (20 k/well)
(§5) 2. Reagents: Fluo-4 Direct, (Invitrogen, Cat #F10471)
(§6) The compound was dissolved in DMSO to prepare a 10 mM solution, and the compound solution was placed in a nitrogen box.
(§7) Agonist reference compounds:
(§8) Preparation of probenecid in FLIPR assay buffer: 1 mL of FLIPR assay buffer was added to […] of probenecid to prepare a 250 mM solution, which is prepared fresh daily.
(§9) 2× (8 μM) Fluo-4 Direct™ Loading Buffer (per 10 mL) • Thaw a bottle of Fluo-4 Direct™ crystal (F10471). • Add 10 mL of FLIPR assay buffer to the vial. • Add 0.2 mL of probenecid to each 10 mL of Fluo-Direct. The final concentration of the assay was 2.5 mM. • Rotate it and place for >5 minutes (in absence of light). • Prepare fresh daily.
(§10) MCP-1 was diluted in FLIPR assay buffer 1:2 into 10 points, starting at 0.5 uM (final 100 nM). RANTES was diluted in FLIPR assay buffer 1:3 into 10 points, starting at 0.5 uM (final 100 nM). 20 uL of serially diluted compound buffer was added to each well of the DRC plate according to the compound plate map.
(§11) Standard compound was diluted in DMSO 1:3 into 11 points, starting at 1 mM. Test compound was diluted in DMSO 1:3 into 11 points, starting at 2 mM. 250 nL of compound solution was transferred into a cell plate using Echo (Greiner #781946).
(§12) (c) Take the cell plate out of the incubator, and gently dispense 20 uL of 2× Fluo-4 Direct wash-free loading buffer into a 384-well cell culture plate using a pipette. The final cell plate is 40 μL in volume.
(§13) (d) Incubate for 50 minutes at 37° C. under 5% CO2, and for 10 minutes at room temperature.
(§14) (e) Take the cell plate out of the incubator, and place it in FLIPR. Place the composite plate and the tip box in FLIPR.
(§15) (f) For DRC plate: • 1) Run the program on FLIPRTETRA. • 2) Read the fluorescent signal. • 3) Transfer 10 μL of compound from the DRC plate to the cell plate. • 4) Read the fluorescent signal. • 5) Calculate the “maximum−minimum” from Read 90 to the maximum allowed. Use FLIPR to calculate the EC80 value of each cell line. • 6) Prepare 5×EC80 concentration of the agonist reference compound.
(§16) (g) For the composite plate (1-add): • 1) Run the program on FLIPRTETRA. • 2) Transfer 10 μl, of 5×EC80 concentration of the agonist reference compound from the composite plate to the cell plate. • 3) Read the fluorescent signal. • 4) Calculate the “maximum−minimum” from Read 90 to the maximum allowed.
(§17) (h) Analyze the data using Prism, and calculate the IC50 value of the compound.

CCR5 = target: T2, CCR5 (Homo sapiens, UniProt P51681); assay: CCR5 in vitro test: intracellular calcium signal detected by FLIPR; assay type: cell-based; conditions: HEK293 cells expressing CCR5, agonist RANTES at EC80, calcium signal
T2 construct: expressed in transfected cells; host or cells: HEK293, clone C13, passage P4
Procedure: as §1, §2, §3, §4, §5, §6, §7, §8, §9, §10, §11, §12, §13, §14, §15, §16, §17

[1] = Comparative pharmacokinetics study in rats; assay type: in vivo, SD male rats; conditions: rat; for clearance / half-life / bioavailability: male, Sprague-Dawley (SD), plasma; for clearance / half-life / Area Under a Curve (0-inf): intravenous injection 2 mg/kg; for bioavailability: oral 10 mg/kg vs intravenous 2 mg/kg; for Area Under a Curve (0-inf/0-last) / Peak time: oral 10 mg/kg; for Oral plasma system exposure (AUC0-inf) as multiple of the reference compound / Plasma clearance as percent of that of the reference compound: relative to Cenicriviroc
Procedure: Experimental Example 2: Comparative Pharmacokinetics Study in Rats
(§18) SD male rats were used as the test animals in this study. The drug concentrations in plasma of the rats by intravenous or oral administration of test compounds WX017, WX047, WX079, WX088 and reference compound at different time points were quantitatively determined by LC/MS/MS, which were used to evaluate the pharmacokinetic profile of the two test drugs in rats.
A clear solution of the test compound was injected into SD rats via the tail vein (overnight fasting, 7-10 weeks old), and the test compound was orally administered to the SD rats (overnight fasting, 7-10 weeks old). Approximately 200 μL of blood was collected from the jugular vein or tail vein of the animals 0.0833, 0.25, 0.5, 1, 2, 4, 6, 8 and 24 hours after administration, and was placed in an anticoagulant tube containing EDTA-K2. The plasma was collected by centrifugation at 3000 g for 15 minutes at 4° C. The plasma concentration was determined by LC-MS/MS. The pharmacokinetic parameters were calculated by the non-compartment model linear logarithmic trapezoidal method using WinNonlin™ Version 6.3 (Pharsight, Mountain View, Calif.) pharmacokinetic software.

CYP1A2 = target: T3, CYP1A2 (Homo sapiens, UniProt P05177); assay: Inhibition of human liver microsomal CYP1A2 (phenacetin probe); assay type: in vitro ADME; conditions: human liver microsomes
T3 construct: from tissue; host or cells: human liver microsomes
T3 sequence (P05177 1-516): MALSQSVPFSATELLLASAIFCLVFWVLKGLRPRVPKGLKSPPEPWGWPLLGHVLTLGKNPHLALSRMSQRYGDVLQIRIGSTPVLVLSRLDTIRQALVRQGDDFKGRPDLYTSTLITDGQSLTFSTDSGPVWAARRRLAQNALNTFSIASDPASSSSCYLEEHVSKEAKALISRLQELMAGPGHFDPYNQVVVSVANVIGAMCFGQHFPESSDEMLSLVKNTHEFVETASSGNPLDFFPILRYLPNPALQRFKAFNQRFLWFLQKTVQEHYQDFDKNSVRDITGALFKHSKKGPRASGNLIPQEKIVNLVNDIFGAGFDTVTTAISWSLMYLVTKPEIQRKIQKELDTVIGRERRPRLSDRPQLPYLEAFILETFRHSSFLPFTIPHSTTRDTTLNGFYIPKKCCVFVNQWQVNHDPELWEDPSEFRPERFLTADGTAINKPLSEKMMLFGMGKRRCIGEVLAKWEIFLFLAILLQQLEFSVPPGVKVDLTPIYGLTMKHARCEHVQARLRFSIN
Procedure: (§19) Experimental Example 4 Inhibition Effect on the Activity of Human Liver Microsomal Cytochrome P450 Isoezymes (CYP1A2, CYP2C9, CYP2C19, CYP2D6 and CYP3A4)
(§20) A total of 5 specific probe substrates for CYP's five isozymes, Phenacetin (CYP1A2), Diclofenac (CYP2C9), […] (S)-Mephenytoin, CYP2C19), Dextromethorphan (CYP2D6) and Midazolam (CYP3A4) were incubated with human liver microsomes and test compounds, respectively, and reduced nicotinamide adenine dinucleotide phosphate (NADPH) was added to initiate the reaction. After the reaction, the sample was processed and liquid chromatography tandem mass spectrometry (LC-MS/MS) was used to quantitatively detect the […] metabolites produced by the specific substrate, Acetaminophen and 4′-hydroxydiclofenac, 4′-hydroxymephenytoin, Dextrorphan and 1′-hydroxymidazolam, in order to calculate the corresponding half maximal inhibitory concentration (IC50).

CYP2C9 = target: T4, CYP2C9 (Homo sapiens, UniProt P11712); assay: Inhibition of human liver microsomal CYP2C9 (diclofenac probe); assay type: in vitro ADME; conditions: human liver microsomes
T4 construct: from tissue; host or cells: human liver microsomes
Procedure: as §19, §20

CYP2C19 = target: T5, CYP2C19 (Homo sapiens, UniProt P33261); assay: Inhibition of human liver microsomal CYP2C19 ((S)-mephenytoin probe); assay type: in vitro ADME; conditions: human liver microsomes
T5 construct: from tissue; host or cells: human liver microsomes
Procedure: as §19, §20

CYP2D6 = target: T6, CYP2D6 (Homo sapiens, UniProt P10635); assay: Inhibition of human liver microsomal CYP2D6 (dextromethorphan probe); assay type: in vitro ADME; conditions: human liver microsomes
T6 construct: from tissue; host or cells: human liver microsomes
Procedure: as §19, §20

CYP3A4 = target: T7, CYP3A4 (Homo sapiens, UniProt P08684); assay: Inhibition of human liver microsomal CYP3A4 (midazolam probe); assay type: in vitro ADME; conditions: human liver microsomes; for IC50: probe midazolam
T7 construct: from tissue; host or cells: human liver microsomes
Procedure: as §19, §20

[2] = test system: human liver microsomal cytochrome P450 isoenzymes; assay: Inhibition of human liver microsomal cytochrome P450 isoenzymes, overall conclusion; assay type: in vitro ADME; conditions: human liver microsomes
Procedure: as §19, §20

[3] = Comparative pharmacokinetics study in cynomolgus monkeys; assay type: in vivo; conditions: cynomolgus monkey
Source text: Experimental Example 3: Comparative Pharmacokinetics Study in Cynomolgus Monkeys
as §18, with “Male cynomolgus monkeys” for “SD male rats”, “cynomolgus monkeys” for “rats”, “compound WX047” for “compounds WX017, WX047, WX079, WX088”, “cynomolgus monkeys.” for “rats.”
A clear solution of the test compound was injected into cynomolgus monkeys via t the cephalic or saphenous vein (overnight fasting, 2.5-7 kg), and the test compound was intragastrically administered to the cynomolgus monkeys (overnight fasting, 7-10 weeks old). Approximately 400 μL of blood was collected from the peripheral vein of the animals 0.0833, 0.25, 0.5, 1, 2, 4, 6, 8, 12 and 24 hours after administration, and transferred into an commercial centrifuge tube containing EDTA-K2*2H2O anticoagulation. The plasma was collected by centrifugation at 3000 g for 10 minutes at 4° C. The plasma concentration was determined by LC-MS/MS. The pharmacokinetic parameters were calculated by the non-compartment model linear logarithmic trapezoidal method using WinNonlin™ Version 6.3 (Pharsight, Mountain View, Calif.) pharmacokinetic software.

[4] = male, plasma, intravenous injection 1 mg/kg

T1 sequence (P41597 whole entry, species assumed): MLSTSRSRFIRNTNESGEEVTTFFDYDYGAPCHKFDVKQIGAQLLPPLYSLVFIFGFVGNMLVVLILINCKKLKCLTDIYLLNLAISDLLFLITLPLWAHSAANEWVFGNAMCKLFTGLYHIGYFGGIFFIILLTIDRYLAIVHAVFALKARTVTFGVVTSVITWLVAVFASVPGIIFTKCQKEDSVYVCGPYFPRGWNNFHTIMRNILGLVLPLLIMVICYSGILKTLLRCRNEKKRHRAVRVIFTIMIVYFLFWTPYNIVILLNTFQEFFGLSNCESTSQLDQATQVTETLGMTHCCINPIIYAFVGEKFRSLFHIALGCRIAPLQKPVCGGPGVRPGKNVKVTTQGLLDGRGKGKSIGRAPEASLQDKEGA
T7 sequence (P08684 whole entry): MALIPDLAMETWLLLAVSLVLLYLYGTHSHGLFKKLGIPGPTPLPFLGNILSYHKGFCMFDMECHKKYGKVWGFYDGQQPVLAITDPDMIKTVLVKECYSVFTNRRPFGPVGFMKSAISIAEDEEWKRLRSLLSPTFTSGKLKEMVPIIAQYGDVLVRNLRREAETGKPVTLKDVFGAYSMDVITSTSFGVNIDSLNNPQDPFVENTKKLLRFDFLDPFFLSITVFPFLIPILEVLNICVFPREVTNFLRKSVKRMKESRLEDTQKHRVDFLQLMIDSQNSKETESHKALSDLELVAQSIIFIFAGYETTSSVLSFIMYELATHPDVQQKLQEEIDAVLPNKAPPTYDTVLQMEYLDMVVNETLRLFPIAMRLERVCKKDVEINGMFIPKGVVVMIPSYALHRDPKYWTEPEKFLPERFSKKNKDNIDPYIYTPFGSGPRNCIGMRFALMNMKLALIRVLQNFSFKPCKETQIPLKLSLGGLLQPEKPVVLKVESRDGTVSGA
T2 sequence (P51681 whole entry, species assumed): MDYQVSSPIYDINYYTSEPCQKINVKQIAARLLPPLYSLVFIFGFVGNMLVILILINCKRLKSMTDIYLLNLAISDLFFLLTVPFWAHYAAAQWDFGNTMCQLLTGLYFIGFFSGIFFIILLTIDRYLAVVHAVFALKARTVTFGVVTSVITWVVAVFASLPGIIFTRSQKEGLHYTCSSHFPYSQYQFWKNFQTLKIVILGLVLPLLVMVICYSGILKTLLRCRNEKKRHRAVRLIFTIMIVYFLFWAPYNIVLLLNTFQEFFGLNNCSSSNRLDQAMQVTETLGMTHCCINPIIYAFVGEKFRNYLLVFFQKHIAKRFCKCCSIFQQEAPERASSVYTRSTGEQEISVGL
T5 sequence (P33261 whole entry): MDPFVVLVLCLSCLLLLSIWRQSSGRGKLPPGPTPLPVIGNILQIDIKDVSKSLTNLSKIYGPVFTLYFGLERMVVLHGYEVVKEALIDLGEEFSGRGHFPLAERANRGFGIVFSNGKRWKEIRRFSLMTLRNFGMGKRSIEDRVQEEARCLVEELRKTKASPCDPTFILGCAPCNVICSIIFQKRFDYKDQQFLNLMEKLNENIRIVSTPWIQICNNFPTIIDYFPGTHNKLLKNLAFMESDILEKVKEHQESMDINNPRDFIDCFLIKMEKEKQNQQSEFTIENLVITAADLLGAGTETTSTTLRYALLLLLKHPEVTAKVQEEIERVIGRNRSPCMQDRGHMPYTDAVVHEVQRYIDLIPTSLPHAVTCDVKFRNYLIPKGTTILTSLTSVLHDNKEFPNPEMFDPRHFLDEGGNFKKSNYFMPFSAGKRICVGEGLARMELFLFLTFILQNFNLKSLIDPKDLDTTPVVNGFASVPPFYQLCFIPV
T6 sequence (P10635 whole entry): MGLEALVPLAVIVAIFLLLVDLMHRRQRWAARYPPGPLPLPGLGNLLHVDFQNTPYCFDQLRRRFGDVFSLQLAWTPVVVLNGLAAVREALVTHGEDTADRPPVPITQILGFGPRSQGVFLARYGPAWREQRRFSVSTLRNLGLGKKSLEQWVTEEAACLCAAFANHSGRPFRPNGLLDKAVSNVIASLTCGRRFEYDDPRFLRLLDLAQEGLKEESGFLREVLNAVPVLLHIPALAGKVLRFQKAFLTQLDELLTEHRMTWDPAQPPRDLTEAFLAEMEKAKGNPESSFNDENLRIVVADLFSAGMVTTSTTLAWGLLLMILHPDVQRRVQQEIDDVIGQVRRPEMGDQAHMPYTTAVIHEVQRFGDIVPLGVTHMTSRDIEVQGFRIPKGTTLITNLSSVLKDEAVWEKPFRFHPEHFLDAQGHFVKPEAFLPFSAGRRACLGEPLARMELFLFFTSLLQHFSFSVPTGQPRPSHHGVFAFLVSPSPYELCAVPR
T4 sequence (P11712 whole entry): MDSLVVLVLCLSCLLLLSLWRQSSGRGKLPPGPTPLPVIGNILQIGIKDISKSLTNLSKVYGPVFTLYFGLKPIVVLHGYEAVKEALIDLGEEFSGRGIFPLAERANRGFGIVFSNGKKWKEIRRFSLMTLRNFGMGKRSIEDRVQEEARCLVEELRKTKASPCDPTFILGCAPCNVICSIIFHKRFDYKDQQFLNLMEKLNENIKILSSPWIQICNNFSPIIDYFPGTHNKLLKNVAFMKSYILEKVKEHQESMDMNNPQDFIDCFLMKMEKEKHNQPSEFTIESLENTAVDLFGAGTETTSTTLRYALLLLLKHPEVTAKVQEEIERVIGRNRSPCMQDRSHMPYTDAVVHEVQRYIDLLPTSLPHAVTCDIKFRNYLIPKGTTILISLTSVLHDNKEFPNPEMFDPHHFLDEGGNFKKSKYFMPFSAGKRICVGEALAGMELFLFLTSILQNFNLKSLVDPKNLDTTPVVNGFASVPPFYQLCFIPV

Row | Compound | IC50 (CCR2) [µM] | IC50 (CCR5) [µM] | clearance [1] [mL/min/kg] | half-life [1] [h] | bioavailability [1] [%] | Area Under a Curve (0-inf) [1] [µM·h] | Area Under a Curve (0-inf/0-last) [1] [µM·h] | Peak time [1] [h] | Oral plasma system exposure (AUC0-inf) as multiple of the reference compound [1] [times] | Plasma clearance as percent of that of the reference compound [1] [%] | IC50 (CYP1A2) [µM] | IC50 (CYP2C9) [µM] | IC50 (CYP2C19) [µM] | IC50 (CYP2D6) [µM] | IC50 (CYP3A4) [µM] | also measured
1 | CCCCOCCOc1ccc(-c2ccc(OC)c(/C=C/C(=O)Nc3ccc([S@+]([O-])Cc4c(C)ncn4CC)cc3)c2)cc1 [WX079] | 0.0056 | 0.0058 | 0.224 | 9.47 | 32.6 | 255.072 | 404.142 | 3.0 | 12.6 | 14 | > 50 | > 50 | > 50 | > 50 | 28.3 | Risk of inhibiting isoenzymes of human liver microsomal cytochrome P450 (conclusion in words) [2]: no risk on inhibiting five isoenzymes
2 | CCCCOCCOc1ccc(-c2ccc3c(c2)/C=C(/C(=O)Nc2ccc([S@@+]([O-])Cc4cncn4CCC)cc2)CCCN3CC(C)C)cc1 [(Cenicriviroc), Cenicriviroc, reference compound] |  |  | 1.57 | 5.48 | 20.4 | 31.344 | 31.956 | 4.0 |  |  | > 50 | > 50 | > 50 | > 50 | 5.6 | Area Under a Curve (0-inf) ([3]; intravenous injection 1 mg/kg): 2.766 µM·h; Area Under a Curve (0-inf/0-last) ([3]; oral 3 mg/kg): 0.424 µM·h; Peak time ([3]; oral 3 mg/kg): 2.0 h; clearance [3, 4]: 8.74 mL/min/kg; half-life [3, 4]: 5.37 h; bioavailability ([3]; male, plasma, oral 3 mg/kg vs intravenous 1 mg/kg): 5.11%; Inhibitory effect on CYP3A4 (conclusion in words) (CYP3A4): weak inhibitory effect
3 | CCCCOCCOc1ccc(-c2ccc(OC)c(/C=C/C(=O)Nc3ccc([S@@+]([O-])Cc4cncn4CCC)cc3)c2)cc1 [WX017] | 0.013 | 0.0079 | 0.4 | 3.69 | 48.9 | 135.732 | 331.778 | 1.5 | 10.4 | 25 |  |  |  |  |  | 
4 | CCCCOCCOc1ccc(-c2cc(F)c(OC)c(/C=C/C(=O)Nc3ccc([S@+]([O-])Cc4c(C)ncn4CC)cc3)c2)cc1 [WX088] | 0.0035 | 0.0043 | 0.328 | 6.63 | 15.7 | 150.423 | 122.101 | 3.0 | 3.8 | 21 |  |  |  |  |  | 
